Patent US7074789B2, “Kinase inhibitors” (Amgen Inc., priority 1999, dated 2006)

Tests used:
Format in all cases: biochemical
[1] = molecular target: T1, Kdr (Homo sapiens, UniProt P35968); test: Kinase inhibition assay (33P transfer), Kdr; conditions: Table 3; read-out: KDR-1
T1 construct: Kinases are expressed as either kinase domains or full length constructs; made in house
Procedure, shortened: (§1)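 Steps: express kinase as GST or polyHistidine fusion in E. coli or High Five cells; optionally co-express or mix with regulatory polypeptides; incubate with 33P-ATP and plate-attached poly(Glu,Tyr) 4:1 or poly(Arg,Ser) 3:1; wash with 0.5% phosphoric acid; count by liquid scintillation.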

[2] = molecular target: T2, Itk (Homo sapiens, UniProt Q08881); test: Kinase inhibition assay (33P transfer), Itk; conditions: Table 3; read-out: Itk-1
T2 construct: Kinases are expressed as either kinase domains or full length constructs; made in house
T2 sequence (Q08881 1-620): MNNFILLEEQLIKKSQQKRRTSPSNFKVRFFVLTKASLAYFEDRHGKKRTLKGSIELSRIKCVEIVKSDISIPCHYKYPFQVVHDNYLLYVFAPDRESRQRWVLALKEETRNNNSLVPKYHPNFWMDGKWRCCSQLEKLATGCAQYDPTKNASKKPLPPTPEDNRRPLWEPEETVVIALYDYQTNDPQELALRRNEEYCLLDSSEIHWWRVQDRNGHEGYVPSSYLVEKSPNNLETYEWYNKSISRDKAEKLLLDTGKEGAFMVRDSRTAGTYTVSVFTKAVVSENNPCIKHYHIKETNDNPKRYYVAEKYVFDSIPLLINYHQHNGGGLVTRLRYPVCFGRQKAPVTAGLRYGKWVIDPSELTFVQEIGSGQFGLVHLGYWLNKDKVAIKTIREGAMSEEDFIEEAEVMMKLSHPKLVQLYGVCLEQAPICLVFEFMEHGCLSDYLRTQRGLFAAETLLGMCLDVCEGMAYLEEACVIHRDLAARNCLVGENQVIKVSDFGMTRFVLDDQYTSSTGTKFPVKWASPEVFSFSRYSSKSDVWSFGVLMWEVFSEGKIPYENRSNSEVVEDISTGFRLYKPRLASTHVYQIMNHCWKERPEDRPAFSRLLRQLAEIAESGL
Procedure, shortened: (§2)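 Each enzyme, purified to near homogeneity by affinity chromatography, was incubated with ATP carrying 33P and a substrate polymer fixed to the plate. Unbound label was removed with dilute phosphoric acid (0.5%) before adding scintillant and counting. Potency is given as the compound level cutting label uptake by 50%.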

[3] = molecular target: T3, Zap-70 (Homo sapiens, UniProt P43403); test: Kinase inhibition assay (33P transfer), Zap-70; conditions: Table 3; read-out: Zap-1
T3 construct: Kinases are expressed as either kinase domains or full length constructs; made in house
T3 sequence (P43403 1-619): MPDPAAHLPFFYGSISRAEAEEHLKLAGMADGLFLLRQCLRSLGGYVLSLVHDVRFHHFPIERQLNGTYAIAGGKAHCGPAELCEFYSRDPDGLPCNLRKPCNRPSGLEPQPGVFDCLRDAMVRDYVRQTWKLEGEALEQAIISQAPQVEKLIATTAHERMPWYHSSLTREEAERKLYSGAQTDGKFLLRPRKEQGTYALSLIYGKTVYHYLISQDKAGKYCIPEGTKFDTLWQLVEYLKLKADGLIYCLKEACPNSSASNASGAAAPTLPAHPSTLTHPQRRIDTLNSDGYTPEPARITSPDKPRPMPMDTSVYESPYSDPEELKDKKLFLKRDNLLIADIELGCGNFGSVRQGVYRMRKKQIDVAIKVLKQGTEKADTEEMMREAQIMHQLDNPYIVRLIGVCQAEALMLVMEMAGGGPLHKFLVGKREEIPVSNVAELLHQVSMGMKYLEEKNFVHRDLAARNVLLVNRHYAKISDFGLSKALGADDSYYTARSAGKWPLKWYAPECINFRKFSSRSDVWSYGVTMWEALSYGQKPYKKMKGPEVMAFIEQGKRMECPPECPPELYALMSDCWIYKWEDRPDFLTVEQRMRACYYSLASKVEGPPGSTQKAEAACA
Procedure, shortened: as §1

[4] = molecular target: T4, Lck (Homo sapiens, UniProt P06239); test: Kinase inhibition assay (33P transfer), Lck; conditions: Table 3; read-out: Lck-1
T4 construct: Kinases are expressed as either kinase domains or full length constructs; made in house
T4 sequence (P06239 whole entry, species assumed, the tested form may be a part): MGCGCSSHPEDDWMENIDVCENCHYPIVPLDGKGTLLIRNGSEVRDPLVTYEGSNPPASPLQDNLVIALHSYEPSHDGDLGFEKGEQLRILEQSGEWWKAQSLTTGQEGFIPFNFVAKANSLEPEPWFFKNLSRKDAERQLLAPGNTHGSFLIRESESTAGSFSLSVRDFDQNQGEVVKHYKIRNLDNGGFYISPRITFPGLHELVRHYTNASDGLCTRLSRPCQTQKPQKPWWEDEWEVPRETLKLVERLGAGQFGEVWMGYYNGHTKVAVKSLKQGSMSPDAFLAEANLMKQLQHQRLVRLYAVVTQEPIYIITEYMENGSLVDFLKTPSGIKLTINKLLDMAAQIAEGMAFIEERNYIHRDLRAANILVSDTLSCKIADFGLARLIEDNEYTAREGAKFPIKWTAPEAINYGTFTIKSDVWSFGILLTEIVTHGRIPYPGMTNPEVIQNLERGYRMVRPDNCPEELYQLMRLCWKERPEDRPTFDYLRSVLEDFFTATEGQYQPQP
Procedure, shortened: as §1

[5] = molecular target: T5, IGFR-1 (Homo sapiens, UniProt P08069); test: Kinase inhibition assay (33P transfer), IGFR-1; conditions: Table 2, kinase inhibition class
T5 construct: Kinases are expressed as either kinase domains or full length constructs; made in house

[6] = molecular target: T6, AKT (Homo sapiens, UniProt Q9Y243); test: Kinase inhibition assay (33P transfer), AKT; conditions: Table 2, kinase inhibition class; read-out: AKT3-1
T6 construct: Kinases are expressed as either kinase domains or full length constructs; made in house
T6 sequence (Q9Y243 whole entry, the tested form may be a part): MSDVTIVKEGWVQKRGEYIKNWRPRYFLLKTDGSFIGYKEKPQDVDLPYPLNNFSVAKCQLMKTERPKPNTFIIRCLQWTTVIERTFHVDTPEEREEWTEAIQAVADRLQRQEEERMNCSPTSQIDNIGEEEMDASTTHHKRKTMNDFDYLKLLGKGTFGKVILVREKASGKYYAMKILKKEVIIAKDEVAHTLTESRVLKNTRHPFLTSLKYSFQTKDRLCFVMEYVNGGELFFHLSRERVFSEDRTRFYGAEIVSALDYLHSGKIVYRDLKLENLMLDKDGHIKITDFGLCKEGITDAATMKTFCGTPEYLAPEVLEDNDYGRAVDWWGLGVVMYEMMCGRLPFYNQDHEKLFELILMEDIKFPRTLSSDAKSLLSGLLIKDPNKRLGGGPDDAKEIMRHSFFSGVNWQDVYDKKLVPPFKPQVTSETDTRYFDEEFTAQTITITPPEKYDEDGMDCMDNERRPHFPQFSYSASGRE
Procedure, shortened: as §1

[7] = molecular target: T7, EGFR (Homo sapiens, UniProt P00533); test: Kinase inhibition assay (33P transfer), EGFR; conditions: Table 2, kinase inhibition class; read-out: EGFR-1
T7 construct: Kinases are expressed as either kinase domains or full length constructs; made in house
Procedure, shortened: as §2

[8] = molecular target: T8, EPHB4 (Homo sapiens, UniProt P54760); test: Kinase inhibition assay (33P transfer), EPHB4; conditions: read-out: EPHB4-1
T8 construct: Kinases are expressed as either kinase domains or full length constructs; made in house
T8 sequence (P54760 16-987): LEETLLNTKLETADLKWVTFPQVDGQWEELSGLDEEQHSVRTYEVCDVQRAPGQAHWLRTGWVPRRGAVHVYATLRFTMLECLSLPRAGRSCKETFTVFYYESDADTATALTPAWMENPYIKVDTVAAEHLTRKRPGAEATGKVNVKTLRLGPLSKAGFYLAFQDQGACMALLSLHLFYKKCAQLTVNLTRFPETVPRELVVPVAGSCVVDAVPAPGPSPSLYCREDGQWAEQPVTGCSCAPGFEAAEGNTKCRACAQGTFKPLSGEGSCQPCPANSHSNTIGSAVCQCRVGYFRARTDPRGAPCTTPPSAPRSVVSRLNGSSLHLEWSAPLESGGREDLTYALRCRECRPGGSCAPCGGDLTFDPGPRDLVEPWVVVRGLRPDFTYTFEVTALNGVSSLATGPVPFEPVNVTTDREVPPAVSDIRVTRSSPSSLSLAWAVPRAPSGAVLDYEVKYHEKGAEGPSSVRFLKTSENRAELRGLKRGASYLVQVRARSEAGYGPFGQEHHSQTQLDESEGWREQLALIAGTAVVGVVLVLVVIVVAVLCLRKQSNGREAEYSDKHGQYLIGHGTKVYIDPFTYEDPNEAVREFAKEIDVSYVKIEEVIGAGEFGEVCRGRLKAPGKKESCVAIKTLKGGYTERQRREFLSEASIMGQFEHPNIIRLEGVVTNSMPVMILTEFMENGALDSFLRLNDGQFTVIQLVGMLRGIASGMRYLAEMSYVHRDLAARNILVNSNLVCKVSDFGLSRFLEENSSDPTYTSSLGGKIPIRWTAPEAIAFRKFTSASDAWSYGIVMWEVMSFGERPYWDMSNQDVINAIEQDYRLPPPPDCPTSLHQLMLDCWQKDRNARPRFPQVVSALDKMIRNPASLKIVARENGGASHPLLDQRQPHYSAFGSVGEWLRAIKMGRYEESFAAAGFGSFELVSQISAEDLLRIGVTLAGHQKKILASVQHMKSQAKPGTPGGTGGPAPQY

[9] = molecular target: T9, c-Met (Homo sapiens, UniProt P08581); test: Kinase inhibition assay (33P transfer), c-Met; conditions: Table 2, kinase inhibition class; read-out: Met-1
T9 construct: Kinases are expressed as either kinase domains or full length constructs; made in house
T9 sequence (P08581 25-1390): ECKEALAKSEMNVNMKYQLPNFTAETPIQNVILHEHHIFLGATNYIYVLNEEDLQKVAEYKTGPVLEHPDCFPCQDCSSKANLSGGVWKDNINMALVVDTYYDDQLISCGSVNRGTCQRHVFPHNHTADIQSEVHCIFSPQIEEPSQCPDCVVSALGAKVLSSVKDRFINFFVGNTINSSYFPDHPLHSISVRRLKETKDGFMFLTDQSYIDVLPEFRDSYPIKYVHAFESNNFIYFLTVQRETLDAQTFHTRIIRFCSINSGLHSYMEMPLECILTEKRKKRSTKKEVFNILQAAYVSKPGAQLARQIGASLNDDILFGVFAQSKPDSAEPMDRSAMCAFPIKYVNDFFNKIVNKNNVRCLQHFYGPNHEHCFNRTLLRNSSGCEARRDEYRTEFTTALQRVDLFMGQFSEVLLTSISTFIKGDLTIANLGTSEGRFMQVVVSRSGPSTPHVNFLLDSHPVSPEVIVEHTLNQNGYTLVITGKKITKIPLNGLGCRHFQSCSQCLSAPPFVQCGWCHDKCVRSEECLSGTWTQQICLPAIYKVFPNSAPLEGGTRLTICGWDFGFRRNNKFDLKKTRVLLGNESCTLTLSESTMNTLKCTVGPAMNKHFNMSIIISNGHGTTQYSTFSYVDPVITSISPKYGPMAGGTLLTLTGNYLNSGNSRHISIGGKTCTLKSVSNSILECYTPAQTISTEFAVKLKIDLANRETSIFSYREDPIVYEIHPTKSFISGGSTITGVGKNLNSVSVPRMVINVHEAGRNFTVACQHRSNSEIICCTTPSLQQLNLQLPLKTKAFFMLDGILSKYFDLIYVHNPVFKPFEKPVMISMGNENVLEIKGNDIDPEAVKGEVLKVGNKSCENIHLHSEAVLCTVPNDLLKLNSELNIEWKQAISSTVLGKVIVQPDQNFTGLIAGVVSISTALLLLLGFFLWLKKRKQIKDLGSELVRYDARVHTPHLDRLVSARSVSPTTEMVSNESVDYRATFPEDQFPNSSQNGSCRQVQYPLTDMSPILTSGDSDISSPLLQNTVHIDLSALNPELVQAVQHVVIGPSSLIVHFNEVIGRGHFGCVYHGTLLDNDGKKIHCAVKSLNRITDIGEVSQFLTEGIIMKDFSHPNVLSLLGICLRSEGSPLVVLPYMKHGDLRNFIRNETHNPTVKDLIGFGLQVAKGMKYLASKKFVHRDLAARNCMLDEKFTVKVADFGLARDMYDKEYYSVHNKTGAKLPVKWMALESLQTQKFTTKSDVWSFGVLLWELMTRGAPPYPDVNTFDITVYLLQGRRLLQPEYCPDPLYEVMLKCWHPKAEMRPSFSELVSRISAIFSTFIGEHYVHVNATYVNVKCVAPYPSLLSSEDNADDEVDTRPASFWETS
Procedure, shortened: as §2

[10] = molecular target: T10, Tek (Homo sapiens, UniProt Q02763); test: Kinase inhibition assay (33P transfer), Tek; conditions: read-out: Tek-1
T10 construct: Kinases are expressed as either kinase domains or full length constructs; made in house
T10 sequence (Q02763 23-1124, species assumed): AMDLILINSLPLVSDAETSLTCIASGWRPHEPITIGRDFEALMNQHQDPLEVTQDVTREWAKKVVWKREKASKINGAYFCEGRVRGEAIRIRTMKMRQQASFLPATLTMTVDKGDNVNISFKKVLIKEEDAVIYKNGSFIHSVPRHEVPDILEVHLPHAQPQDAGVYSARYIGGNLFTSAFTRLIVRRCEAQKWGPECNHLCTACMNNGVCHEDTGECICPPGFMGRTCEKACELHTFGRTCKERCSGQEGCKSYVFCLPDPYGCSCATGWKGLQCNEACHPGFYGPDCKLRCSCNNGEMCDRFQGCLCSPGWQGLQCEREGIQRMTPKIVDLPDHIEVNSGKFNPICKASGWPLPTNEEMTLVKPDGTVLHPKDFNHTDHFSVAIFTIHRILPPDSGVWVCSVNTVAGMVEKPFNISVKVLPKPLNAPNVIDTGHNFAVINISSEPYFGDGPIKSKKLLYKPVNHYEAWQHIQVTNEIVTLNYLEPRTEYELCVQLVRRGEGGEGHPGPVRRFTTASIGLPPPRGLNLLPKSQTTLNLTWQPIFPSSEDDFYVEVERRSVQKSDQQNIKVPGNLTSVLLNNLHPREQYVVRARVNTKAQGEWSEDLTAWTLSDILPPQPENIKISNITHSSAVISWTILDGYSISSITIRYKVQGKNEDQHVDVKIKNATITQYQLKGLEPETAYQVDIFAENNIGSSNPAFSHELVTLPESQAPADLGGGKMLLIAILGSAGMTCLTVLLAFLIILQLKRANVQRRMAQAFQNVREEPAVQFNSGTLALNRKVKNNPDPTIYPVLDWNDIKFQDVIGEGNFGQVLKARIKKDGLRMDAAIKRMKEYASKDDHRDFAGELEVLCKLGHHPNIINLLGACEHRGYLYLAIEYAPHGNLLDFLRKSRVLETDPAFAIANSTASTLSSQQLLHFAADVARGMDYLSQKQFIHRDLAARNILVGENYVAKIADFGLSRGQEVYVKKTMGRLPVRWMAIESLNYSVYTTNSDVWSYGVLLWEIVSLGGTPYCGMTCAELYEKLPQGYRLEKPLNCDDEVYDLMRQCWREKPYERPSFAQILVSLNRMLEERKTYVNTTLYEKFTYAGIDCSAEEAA
Procedure, shortened: as §2

T1 sequence (P35968 20-1356, species assumed): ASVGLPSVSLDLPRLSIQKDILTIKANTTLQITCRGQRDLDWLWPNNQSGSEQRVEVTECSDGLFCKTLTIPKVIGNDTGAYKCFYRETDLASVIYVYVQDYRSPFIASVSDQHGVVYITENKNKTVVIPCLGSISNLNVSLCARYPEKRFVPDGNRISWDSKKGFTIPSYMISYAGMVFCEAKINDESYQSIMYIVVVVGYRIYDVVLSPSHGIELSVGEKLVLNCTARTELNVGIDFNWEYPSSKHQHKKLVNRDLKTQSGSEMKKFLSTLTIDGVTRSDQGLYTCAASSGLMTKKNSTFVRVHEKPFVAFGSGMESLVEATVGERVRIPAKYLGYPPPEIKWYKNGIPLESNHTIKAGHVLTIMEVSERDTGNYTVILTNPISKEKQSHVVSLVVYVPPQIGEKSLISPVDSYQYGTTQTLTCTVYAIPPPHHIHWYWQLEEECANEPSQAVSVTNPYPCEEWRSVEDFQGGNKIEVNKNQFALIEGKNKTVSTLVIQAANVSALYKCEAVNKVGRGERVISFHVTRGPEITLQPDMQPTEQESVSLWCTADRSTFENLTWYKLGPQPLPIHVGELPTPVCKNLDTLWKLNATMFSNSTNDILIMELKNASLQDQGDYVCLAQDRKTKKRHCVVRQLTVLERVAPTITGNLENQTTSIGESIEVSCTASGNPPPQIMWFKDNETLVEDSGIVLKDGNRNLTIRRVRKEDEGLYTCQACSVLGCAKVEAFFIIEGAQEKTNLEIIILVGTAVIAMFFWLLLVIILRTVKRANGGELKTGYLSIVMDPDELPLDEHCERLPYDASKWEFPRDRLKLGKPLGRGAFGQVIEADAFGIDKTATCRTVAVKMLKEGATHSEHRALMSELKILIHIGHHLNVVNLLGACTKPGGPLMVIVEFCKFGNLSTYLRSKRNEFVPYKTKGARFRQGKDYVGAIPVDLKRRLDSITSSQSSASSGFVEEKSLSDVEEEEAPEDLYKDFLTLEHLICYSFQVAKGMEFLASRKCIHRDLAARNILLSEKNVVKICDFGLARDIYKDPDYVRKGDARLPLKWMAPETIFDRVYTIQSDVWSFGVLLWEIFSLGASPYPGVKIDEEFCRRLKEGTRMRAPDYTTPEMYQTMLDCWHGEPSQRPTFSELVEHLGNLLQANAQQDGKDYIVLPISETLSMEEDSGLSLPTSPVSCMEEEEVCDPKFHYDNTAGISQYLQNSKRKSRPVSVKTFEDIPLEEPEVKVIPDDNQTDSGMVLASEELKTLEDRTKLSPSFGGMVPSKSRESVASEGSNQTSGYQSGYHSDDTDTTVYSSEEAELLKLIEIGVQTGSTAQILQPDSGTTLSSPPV

IC50 [1] [µM]	IC50 [2] [µM]	IC50 [3] [µM]	IC50 [4] [µM]	IC50 [5] [µM]	IC50 [6] [µM]	IC50 [7] [µM]	IC50 [8] [µM]	IC50 [9] [µM]	IC50 [10] [µM]	SMILES
> 12.5	> 12.5	> 12.5	> 12.5	> 12.5	> 12.5	> 12.5	> 12.5	> 12.5	> 12.5	COc1cc(Nc2ncnc(N3CCN(C)CC3)n2)cc(OC)c1OC [Compound 212]
0.794 to 4.76	> 8.93	> 8.93	4.76 to 6.95	> 8.93	> 8.93	> 8.93	> 8.93	> 8.93	> 8.93	COc1cc(Nc2ncnc(-n3c(Nc4ccc(Cl)cc4)nc4ccccc43)n2)cc(OC)c1OC [Compound 375]
> 12.1	> 12.1	> 12.1	> 12.1	> 12.1	> 12.1	> 12.1	> 12.1	> 12.1	> 12.1	COc1cc(Nc2ncnc(-c3cccc(Cl)c3)n2)cc(OC)c1OC [Compound 220]
> 11.4	> 11.4	> 11.4	> 11.4	> 11.4	> 11.4	> 11.4	> 11.4	> 11.4	> 11.4	COc1cc(Nc2ncnc(-c3cc4ccccc4s3)n2)cc(OC)c1OC [Compound 218]
< 1.04	> 11.7	> 11.7	> 11.7	> 11.7	> 11.7	6.24 to 9.11	> 11.7	> 11.7	> 11.7	COc1ccc(Oc2ncnc(Nc3cc(OC)c(OC)c(OC)c3)n2)cc1 [Compound 174]
1.02 to 6.13	> 11.5	1.02 to 6.13	8.94 to 11.5	6.13 to 8.94	1.02 to 6.13	6.13 to 8.94	> 11.5	1.02 to 6.13	6.13 to 8.94	CCOc1ccc(Nc2ncnc(-n3c(N)nc4ccccc43)n2)cc1OCC [Compound 299]
0.898 to 5.39	> 10.1	> 10.1	> 10.1	> 10.1	> 10.1	0.898 to 5.39	> 10.1	0.898 to 5.39	> 10.1	COc1cc(Nc2ncnc(Nc3cccc(Oc4ccccc4)c3)n2)cc(OC)c1OC [Compound 105]
1.08 to 6.46	> 12.1	> 12.1	1.08 to 6.46	1.08 to 6.46	> 12.1	1.08 to 6.46	9.42 to 12.1	> 12.1	1.08 to 6.46	COc1cc(Nc2ncnc(Nc3ccc(F)cc3)n2)cc(OC)c1OC [Compound 303]
< 0.843	> 9.48	> 9.48	> 9.48	> 9.48	> 9.48	> 9.48	> 9.48	> 9.48	> 9.48	COc1cc(Nc2ncnc(Nc3ccc(S(=O)(=O)NC(C)=O)cc3)n2)cc(OC)c1OC [Compound 255]
7.27 to 9.35	> 9.35	> 9.35	0.831 to 4.98	0.831 to 4.98	> 9.35	0.831 to 4.98	> 9.35	> 9.35	> 9.35	COc1ccc(Nc2ncnc(N(CC(=O)OC(C)(C)C)c3ccc4c(c3)OCO4)n2)cc1OC [Compound 310]
> 10.3	> 10.3	> 10.3	> 10.3	> 10.3	> 10.3	> 10.3	> 10.3	> 10.3	> 10.3	OCCCNc1cc(-c2ncnc(Nc3cccc(OC(F)(F)C(F)F)c3)n2)ccn1 [Compound 372]
0.902 to 5.41	> 10.1	> 10.1	> 10.1	> 10.1	> 10.1	> 10.1	> 10.1	> 10.1	> 10.1	COCCOc1ccc(Nc2ncnc(Nc3ccc(C)c(F)c3)n2)cc1OCCOC [Compound 322]
9.82 to 12.6	> 12.6	> 12.6	> 12.6	> 12.6	> 12.6	> 12.6	> 12.6	> 12.6	> 12.6	COc1cc(Nc2ncnc(-c3ccc(F)cc3)n2)cc(OC)c1OC [Compound 222]
6.97 to 10.2	> 13.1	10.2 to 13.1	10.2 to 13.1	> 13.1	> 13.1	> 13.1	> 13.1	> 13.1	10.2 to 13.1	COc1cc(Nc2ncnc(-c3ccsc3)n2)cc(OC)c1OC [Compound 226]
> 9.81	> 9.81	> 9.81	> 9.81	> 9.81	> 9.81	> 9.81	> 9.81	> 9.81	> 9.81	COc1cc(Nc2ncnc(Nc3ccc(NCc4ccccc4)cc3)n2)cc(OC)c1OC [Compound 93]
> 9.86	> 9.86	> 9.86	> 9.86	> 9.86	> 9.86	> 9.86	> 9.86	> 9.86	7.67 to 9.86	COc1cc(NC(=O)Nc2ncnc(Nc3cc(OC)c(OC)c(OC)c3)n2)cc(OC)c1 [Compound 22]
